# Target: T1, MNK2 (Homo sapiens, UniProt Q9HBH9)
# T1 construct: the open reading frames of human Mnk1 and Mnk2a were amplified from cDNA; made in house; host or cells: E. coli BL21
# Assay: Mnk2a in vitro kinase assay (indirect fluorescence polarization)
# Assay type: biochemical
# Conditions: pre-activated GST-Mnk2a 2.5 nM, 20 μM ATP, 30 μM substrate peptide
# Method: Inhibitory potency of compounds against Mnk1, Mnk2a and other kinases was assessed with assays based on a format known to those skilled in the art as the indirect (competitive) fluorescence polarization. The assay detection system comprises a small fluorophore-labeled phospho-peptide (termed ligand) bound to a phospho-specific antibody. The product generated by the kinase reaction competes with the ligand for antibody binding. Based on the larger molecular volume of the bound ligand, which results in a lower rotation rate in solution, its emitted light has a higher degree of polarization than the one from the free ligand.
# Example 2a. Mnk1 and Mnk2a in vitro kinase assay
# As a source of enzyme, human Mnk1 and human Mnk2a were expressed as GST fusion proteins in E. coli, purified to >80% homogeneity by glutathione affinity chromatography and activated in vitro with pre-activated ERK2. In brief, the open reading frames of human Mnk1 and Mnk2a were amplified from cDNA using the forward/reverse primer pairs
# (utilized restriction sites underlined), respectively, and cloned into the BamHI and SalI sites of the vector pGEX-4T1 (Amersham, Sweden, cat. no. 27-4580-01). These constructs allow prokaryotic expression of Mnk1 or Mnk2a as fusion protein with a N-terminal glutathione S-transferase (GST) tag, referred to as GST-Mnk1 or GSTMnk2a. The following expression and purification procedure was identical for GSTMnk1 and GST-Mnk2a, referring in general to GST-Mnk, when not distinguishing between the two isoforms. Expression of GST-Mnk was in E. coli BL21 (Merck Biosciences, Germany, cat. no. 69449). Cells were grown in LB-Bouillon (Merck, Germany, cat. no. 1.10285) supplemented with 100 μg/ml ampicillin (Sigma, Germany, cat. no. A9518) at 37° C. When the culture had reached a density corresponding to an A600 of 0.8, an equal volume of ice cold LB/ampicillin was added, the culture transferred to 25° C. and induced for 4 h with 1 mM isopropyl thiogalactoside (IPTG, Roth, Germany, cat. no. 2316.4). Cells harvested by centrifugation were resuspended in 10 ml lysis buffer (50 mM tris(hydroxymethyl)aminomethane hydrochloride (Tris/HCl, Sigma, Germany, cat. no. T5941) pH 7.5, 300 mM sodium chloride (NaCl, Sigma, Germany, cat. no. S7653), 5% (w/v) glycerol (Sigma, Germany, cat. no. G5516), 3 mM DTT dithiotreitol (DTT, Sigma, Germany, cat. no. D9779)) per gram wet weight cell pellet. Lysates were prepared by disruption of cells with a sonifier and subsequent clearing by centrifugation at 38000 g for 45 min at 4° C.
# The lysate was applied to a GSTPrep FF 16/10 column (Amersham, Sweden, cat. no. 17-5234-01) equilibrated with lysis buffer. Removal of unbound material was with 3 column volumes (CV) lysis buffer. Elution was with 2 CV of elution buffer (50 mM Tris/HCl pH 7.5, 300 mM NaCl, 5% (w/v) glycerol, 20 mM glutathione (Sigma, Germany, cat. no. G4251)). Peak fractions were pooled and the protein transferred into storage buffer (50 mM Tris/HCl pH 7.5, 200 mM NaCl, 0.1 mM ethylene glycolbis(2-aminoethylether)-N,N,N′,N′-tetraacetic acid (EGTA, Aldrich, Germany, cat. no. 23, 453-2), 1 mM DTT, 10% (w/v) glycerol, 0.5 M sucrose (Sigma, Germany, cat. no. S0389) by gel filtration on a PD10 desalting column (Amersham, Sweden, cat. no. 17-0851-01). Aliquots were shock frozen in liquid nitrogen and stored at −80° C.
# Activation of Mnk1 and Mnk2a was at a concentration of 2.5 μM of either purified GST-Mnk1 or GST-Mnk2a by incubation with 150 nM pre-activated NHis-ERK2 (see ERK2 assay for preparation) and 50 μM adenosine triphosphate (ATP, Sigma, cat. no. A2699) in a buffer comprising 20 mM N-(2-hydroxyethyl)piperazine-N′-(2-ethanesulfonic acid) (HEPES, Fluka, Germany, cat. no 54459)/potassium hydroxide (KOH, Roth, Germany, cat. no 6751.1) pH 7.4, 10 mM magnesium chloride (MgCl2, Sigma, Germany, cat. no. M2670), 0.25 mM DTT, 0.05% (w/v) polyoxyethylene 20 stearylether (Brij 78, Sigma, Germany, cat. no. P4019) (HMDB buffer) for 45 min at 30° C. […]
# T1 sequence (Q9HBH9 whole entry): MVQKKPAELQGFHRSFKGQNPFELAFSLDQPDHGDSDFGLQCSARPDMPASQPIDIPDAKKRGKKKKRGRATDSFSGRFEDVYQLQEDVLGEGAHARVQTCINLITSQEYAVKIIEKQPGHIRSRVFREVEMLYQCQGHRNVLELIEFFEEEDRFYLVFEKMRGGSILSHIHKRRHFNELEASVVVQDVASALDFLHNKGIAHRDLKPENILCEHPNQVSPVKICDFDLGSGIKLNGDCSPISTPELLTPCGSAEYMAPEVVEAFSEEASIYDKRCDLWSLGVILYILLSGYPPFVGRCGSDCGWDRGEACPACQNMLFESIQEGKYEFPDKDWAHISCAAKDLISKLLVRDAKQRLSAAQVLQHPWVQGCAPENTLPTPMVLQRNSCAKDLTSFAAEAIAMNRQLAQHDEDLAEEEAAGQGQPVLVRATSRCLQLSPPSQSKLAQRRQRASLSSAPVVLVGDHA
row,Compound,IC50 [µM]
1,Cc1c(C(=O)NCCCN2CCC2)sc2ncnc(Nc3cccnc3O[C@H]3CC[C@H](O)CC3)c12 [Example 270],0.058
2,Cc1c(C(N)=O)sc2ncnc(Nc3ccc(F)cc3O[C@H]3C[C@@H]4OC(C)(C)O[C@@H]4C3)c12 [Example 213],0.074
3,CCNC(=O)c1sc2ncnc(Nc3ccc(F)cc3O[C@@H]3CCC[C@H](OC)C3)c2c1C (racemic) [Example 109],0.024
4,CO[C@H]1CCC[C@@H](Oc2cc(F)ccc2Nc2ncnc3sc(C(=O)NCc4cnco4)c(C)c23)C1 (racemic) [Example 93],0.016
5,Cc1c(C(=O)NCCCO)sc2ncnc(Nc3ccc(F)cc3O[C@@H]3CCC[C@@H](O)C3)c12 (racemic) [Example 74],0.022
6,CO[C@H]1CC[C@H](Oc2cc(F)ccc2Nc2ncnc3sc(C(=O)NCC#CCN(C)C)c(C)c23)CC1 [Example 187],0.021
7,CO[C@H]1CCC[C@@H](Oc2cc(F)ccc2Nc2ncnc3sc(C(=O)NCCCCO)c(C)c23)C1 (racemic) [Example 92],0.036
8,CO[C@H]1CCC[C@@H](Oc2ncccc2Nc2ncnc3sc(C(=O)NCCO)c(C)c23)C1 (racemic) [Example 122],0.018
9,Cc1c(C(N)=O)sc2ncnc(Nc3ccc(F)cc3O[C@@H]3C[C@@H]4OCO[C@@H]4C3)c12 [Example 218],0.038
10,"COC(=O)c1sc2ncnc(Nc3ccc(F)cc3O[C@@H]3CCCC[C@@H]3O)c2c1C (single isomer, unassigned) [Example 256, 4-[4-fluoro-2-(cis-2-hydroxy-cyclohexyloxy)-phenylamino]-5-methyl-thieno[2,3-d]pyrimidine-6-carboxylic acid methyl ester]",1.29
11,"Cc1c(C(=O)NCCO)sc2ncnc(Nc3cccnc3O[C@H]3CC[C@H](O)CC3)c12 [Example 266, 4-[2-(trans-4-hydroxy-cyclohexyloxy)-pyridine-3-ylamino]-5-methyl-thieno[2,3-d]pyrimidine-6-carboxylic acid (2-hydroxy-ethyl)-amide]",0.015
12,CNC(=O)CNC(=O)c1sc2ncnc(Nc3ccc(F)cc3O[C@@H]3CCC[C@@H](O)C3)c2c1C (racemic) [Example 64],0.021
13,COC1CCCC(Oc2ncccc2Nc2ncnc3sc(C(=O)NC4CCN(C)CC4)c(C)c23)C1 (centres unmarked) [Example 123],0.026
14,CC(=O)N[C@H]1C[C@H](Oc2cc(F)ccc2Nc2ncnc3sc(C(=O)NCCO)c(C)c23)C1 [Example 41],0.152
15,"CO[C@H]1CC[C@@H](Oc2cc(F)ccc2Nc2ncnc3sc(C(=O)NCCCN(C)C)c(C)c23)CC1 [Example 202, 4-[4-Fluoro-2-(cis-4-methoxy-cyclohexyloxy)-phenylamino]-5-methyl-thieno[2,3-d]pyrimidine-6-carboxylic acid (3-dimethylamino-propyl)-amide]",0.046
16,"CO[C@H]1CC[C@H](Oc2cc(F)ccc2Nc2ncnc3sc(C(=O)NCCCN4CCOCC4)c(C)c23)CC1 [Example 192, 4-[4-Fluoro-2-(trans-4-methoxy-cyclohexyloxy)-phenylamino]-5-methyl-thieno[2,3-d]pyrimidine-6-carboxylic acid (3-morpholin-4-yl-propyl)-amide]",0.021
17,"COCCN(C)[C@H]1CC[C@@H](Oc2cc(F)ccc2Nc2ncnc3sc(C(N)=O)c(C)c23)CC1 [Example 23, 4-(4-Fluoro-2-(cis-4-((2-methoxyethyl)(methyl)amino)cyclohexyloxy)phenylamino)-5-methylthieno[2,3-d]pyrimidine-6-carboxamide]",0.92
18,CO[C@H]1CCC[C@@H](Oc2ncccc2Nc2ncnc3sc(C(=O)NCCCCO)c(C)c23)C1 (racemic) [Example 113],0.023

# The remaining lines, values ahead:
row,IC50 [µM],Compound
1,0.009,"CO[C@H]1CC[C@H](Oc2ncccc2Nc2ncnc3sc(C(N)=O)c(C)c23)CC1 [Example 207, 4-[2-(trans-4-Methoxy-cyclohexyloxy)-pyridin-3-ylamino]-5-methyl-thieno[2,3-d]pyrimidine-6-carboxylic acid amide]"
2,0.009,"CO[C@H]1CC[C@H](Oc2cc(F)ccc2Nc2ncnc3sc(C(N)=O)c(C)c23)CC1 [Example 175, 4-[4-Fluoro-2-(trans-4-methoxy-cyclohexyloxy)-phenylamino]-5-methyl-thieno[2,3-d]pyrimidine-6-carboxylic acid amide]"
3,0.015,CO[C@H]1CC[C@H](Oc2cc(F)ccc2Nc2ncnc3sc(C(=O)NCC4CN(C)CCO4)c(C)c23)CC1 (some centres unmarked) [Example 199]
4,0.012,"CC(=O)N(C)[C@H]1CC[C@H](Oc2cc(F)ccc2Nc2ncnc3sc(C(=O)NCCCN(C)C)c(C)c23)CC1 [Example 8, N-(3-(dimethylamino)propyl)-4-(4-fluoro-2-(trans-4-(N-methylacetamido)cyclohexyloxy)phenylamino)-5-methylthieno[2,3-d]pyrimidine-6-carboxamide]"
5,0.009,"Cc1c(C(=O)NCCCN2CCCC2)sc2ncnc(Nc3ccc(F)cc3O[C@H]3CC[C@H](O)CC3)c12 [Example 153, 4-[4-Fluoro-2-(trans-4-hydroxy-cyclohexyloxy)-phenylamino]-5-methyl-thieno[2,3-d]pyrimidine-6-carboxylic acid (3-pyrrolidin-1-yl-propyl)-amide]"
6,0.01,CCNC(=O)c1sc2ncnc(Nc3cccnc3O[C@H]3CC[C@H](N)CC3)c2c1C [Example 284]
7,0.01,"CO[C@@H]1CCCC[C@H]1Oc1cc(F)ccc1Nc1ncnc2sc(C(N)=O)c(C)c12 (racemic) [Example 50, Racemic 4-[4-Fluoro-2-(trans-2-methoxy-cyclohexyloxy)-phenylamino]-5-methyl-thieno[2,3-d]pyrimidine-6-carboxylic acid amide]"
8,0.011,CO[C@@H]1CCCC[C@H]1Oc1cc(F)ccc1Nc1ncnc2sc(C(=O)NCCCN3CCCC3)c(C)c12 [Example 254]
9,0.014,Cc1c(C(=O)NCC#N)sc2ncnc(Nc3ccc(F)cc3O[C@@H]3CCC[C@@H](O)C3)c12 (racemic) [Example 63]
10,0.01,"Cc1c(C(N)=O)sc2ncnc(Nc3cccnc3O[C@H]3CC[C@@H](O)CC3)c12 [Example 205, 4-[2-(cis-4-Hydroxy-cyclohexyloxy)-pyridin-3-ylamino]-5-methyl-thieno[2,3-d]pyrimidine-6-carboxylic acid amide]"
11,0.01,CO[C@H]1CC[C@H](Oc2cc(F)ccc2Nc2ncnc3sc(C(=O)NCCCN4CCCCC4)c(C)c23)CC1 [Example 275]
12,0.007,CC(=O)N(C)[C@H]1CC[C@H](Oc2cc(F)ccc2Nc2ncnc3sc(C(N)=O)c(C)c23)CC1 [Example 7]
13,0.009,Cc1c(C(=O)NCC#N)sc2ncnc(Nc3ccc(F)cc3O[C@H]3CC[C@H](O)CC3)c12 [Example 163]
14,0.012,"Cc1c(C(=O)NCCO)sc2ncnc(Nc3ccc(F)cc3OC3CCC(O)C3)c12 (centres unmarked) [Example 227, 4-(4-Fluoro-2-(3-hydroxycyclopentyloxy)phenylamino)-N-(2-hydroxyethyl)-5-methylthieno[2,3-d]pyrimidine-6-carboxamide]"

# Reference: patent publication US8754079B2, “Cycloalkyl containing thienopyrimidines for pharmaceutical compositions” (Boehringer Ingelheim International GmbH, priority 2010, dated 2014)
